Assay results reported in patent publication US20260193647A1, “MIRNA-BASED CANCER THERAPY WITH A TUMOR-NAVIGATING PEPTIDE” (The Board of Trustees of the Universities of Illinois, priority 2022, published 2026).
Ends that are not written are not given here.

Assays:
[1] = tested on: miR21; experiment: miR21 expression by qPCR in treated cells; assay type: cell-based, human
[2] = tested on: SJ-GBM2, CHLA-200, LN-229 and astrocytes; experiment: CCK-8 cell viability assay, set of cell lines tested; assay type: cell-based, human; details: component alone; 24 hr
Protocol: (§1) Cell viability was evaluated by a CCK-8 assay (Dojindo, Japan). Cells were seeded at a density of 4,000 cells per well in 100 μl of growth medium in 96-well plates and grown overnight. Then, the cells were exposed to antisense miR-20a alone, p28 alone or negative control or AmiR20-p28 over a range of concentrations and incubated for 24 hr. According to the manufacturer's instructions, 10 μl of CCK-8 solution was added to each well, followed by incubation for 1 hr at 37° C. The absorbance at 450 nm was determined by a multiplate reader.
(§2) Cell viability (%)=Abs(sample)−Abs(blank)/Abs(no treatment)−Abs(blank)×100

[3] = tested on: SJ-GBM2 cells, CHLA-200 cells and astrocytes; experiment: Cellular entry by confocal microscopy; assay type: cell-based, human; details: 20 μM Alexa Fluor labeled, 2 hr, 37° C.; pGBM cells vs normal astrocytes
Protocol: p28 or AmiR20-p28 were dissolved in PBS mixed with Alexa Fluor 568 dye (Invitrogen) at a 1:2 peptide/dye ratio 37. Sodium bicarbonate (pH 8.5) was added and incubated at 4° C. with continuous stirring. Alexa Fluor 568 labeled p28 and AmiR20-p28 were dialyzed against cold-PBS using Slide-A-Lyzer Dialysis Cassettes (Pierce Biotechnology). Similarly, p28 was labeled with ICG as described previously.
SJ-GBM2 cells, CHLA-200 cells and astrocytes (2×10^4 cells/well) were cultured on glass slides placed in 24-well plates. After overnight culture, the cells were washed with PBS and incubated with 20 μM Alexa Fluor 568-labeled p28 peptide in medium (5% FBS and without phenol red) for 2 hr at 37° C. Cells were fixed with 2% formalin for 10 min. After washing, slides were prepared and mounted with Vectashield with DAPI (Vector Laboratories, Catalog #94010). Slides were examined by an LSM 710 confocal laser scanning microscope (Zeiss). Images were processed using ZEN software (ZEISS ZEN Lite). As for a GSC marker, the slides were first incubated with Alexa Fluor 568-labeled AmiR20-p28 for 2 hr at 37° C. Cells were fixed with 2% formalin for 10 min. After washing, slides were incubated with blocking buffer for 1 hr at room temperature, followed by consecutive staining with anti-CD133 antibody (1:500, R&D Systems FAB11331G). Slides were washed and mounted with Vectashield containing DAPI. […]

[4] = human, in vivo; cited from earlier work
[5] = tested on: miR-20a; experiment: miR-20a expression levels by stem loop qPCR in treated cells; assay type: cell-based, human; details: any of the cell lines tested; administered alone, 10 nM, 24 hr
Text: Micro RNA enriched fraction was extracted using the miRNeasy Mini Kit (Qiagen, Catalog #217004) following the manufacturer's instructions. Stem loop real-time qPCR was used to analyze miRNA expression. We designed miR-20a stem loop RT primers and amplification primers according to a previously described method 79. cDNA was synthesized from extracted RNA using unique stem loop RT primers. The sequence of the stem loop primer for miR-20a was 5′-[…]-3′ (SEQ ID NO:7). Reverse transcriptase reactions contained the following reagents: 10 ng of RNA sample, 60 nM stem-loop RT primer, 1×RT buffer, 0.25 mM dNTP, and 4 U/μl reverse transcriptase. Reactions were performed by incubation at 16° C. for 30 min, 42° C. for 30 min and 85° C. for 5 min. Real-time PCR (7300 Real time PCR Systems, Applied Biosystems, CA) was performed using the specific forward primer for miR-20a (5′-[…]-3′ (SEQ ID NO:8)) and a universal reverse primer (5′-GTGCA GGGTC CGAGGT-3′ (SEQ ID NO:9)). The 20-μl PCR mixture included 1×SYBR Premix (Invitrogen), 2 μl of RT products and each forward and reverse primer at 10 nM. Reactions were performed by incubation in a 96-well plate at 95° C. for 30 sec, followed by 35 cycles of 95° C. for 30 sec and 60° C. for 30 sec. U6 was used as an internal control to normalize the level of target miRNAs. The results were verified by performing PCR using M13 modified forward and reverse primers specific to stem loop sequence. The PCR products were visualized in 2% agarose gels and DNA-sequence was confirmed. Human tumor and serum samples were obtained from patients who had signed informed consent and the institutional review board approval was obtained in Pediatric Brain Tumor Consortium (PBTC-041) participating sites.

[6] = tested on: SJ-GBM2 cells; experiment: cells; details: Homo sapiens, 24 h, read-out: IC50 (cell viability)
Protocol: as §1, §2

## p28: CPP derived from Pseudomonas aeruginosa azurin that preferentially enters cancer cells; carrier component tested alone [reference compound]
[1]; any cell lines tested, component alone
  reduction of miR21: did not induce a significant reduction of miR21
[2]
  inhibitory effect on cell viability: neither p28 nor AmiR20, alone had an inhibitory effect on cell viability
[3]
  cellular entry (confocal images): preferentially penetrated
[4]
  tolerability in patients: well tolerated without apparent adverse effects, toxicity, or immunogenicity
[5]
  inhibitory effect on miR-20a expression: did not have a significant inhibitory effect

## Cn1nnc2c(C(N)=O)ncn2c1=O [TMZ, temozolomide]
[6]
  IC50: ~600 µM

## AmiR21-p28: cell-penetrating peptide p28 chemically conjugated to antisense-miR21 (LSTAADMQGVVTDGMASGLDKDYLKPDD; also: chemically conjugated to antisense miR-21, site not given here; UniProt P00282 70-97, looked up, fragment)
[1]; pGBM and aGBM cells, Ten nM
  endogenous miR21: significantly reduced the endogenous miR21
